# Marks after values point to notes of the source that are not given here.
# How the values were obtained:
# healthy participants = experiment: Safety and tolerability (treatment-emergent adverse events), studies VNRX-7145-101 and VNRX-7145-102; format: in vivo, human
# Description: Safety was assessed via ongoing monitoring of adverse events, symptom-directed physical examinations, and changes in clinical laboratory measures, vital signs, and ECGs.
# [1] = Plasma pharmacokinetics after single ascending doses of LED-E (VNRX-7145-101 Part 1); format: in vivo; conditions: human, oral; for Vd/F: read-out: Vz/F; for Tmax: median (range)
# Description: (§1) Quantitation used separate weighted 1 /x^2 linear least-squares regression analyses generated from calibration standards. Exploratory screening for metabolites was performed for some samples. […] Single-dose plasma pharmacokinetic parameters were determined in Part 1, and both single-dose (Day 1) and multiple-dose (Day 12) parameters were determined in Part 2. […] Dose proportionality was analyzed using a power model in which pharmacokinetic exposure parameters and dose were converted to the natural log and linear regression results were reported, with the slope as the power estimate ([15]). […] In Part 2, achievement of steady-state concentrations was assessed using Tukey’s multiple comparison test for pre-dose and all dosing days (Days 2 to 10) for each dose level separately. In both studies, plasma pharmacokinetic parameters were calculated using WinNonlin (Certara; Radnor, PA), and urine pharmacokinetic parameters were calculated using SAS (SAS Institute; Cary, NC).
# [2] = Plasma pharmacokinetics on Day 10 after multiple doses of LED-E q8h (VNRX-7145-101 Part 2, VNRX-7145-102 Part 2); format: in vivo, human; conditions: human, oral, plasma; for AUC / Cmax / Vd/F / half-life: geometric mean (CV %); for Vd/F: read-out: Vz/F; for Tmax: median (range); for half-life: read-out: t1/2 (converted)
# Description: as §1, with “Single-dose plasma pharmacokinetic parameters were determined in Part 1, and both single-dose (Day 1) and multiple-dose (Day 12) parameters were determined in Part 2.” left out, “separately. […] Plasma pharmacokinetic parameters were calculated using noncompartmental analysis of the plasma and urine concentration-time data. […] AUCinf and Cmax were natural log-transformed before analysis, using a linear mixed effects model. […]” for “separately.”
# [3] = Urinary pharmacokinetics after single doses of LED-E; format: in vivo, human; conditions: urine, geometric mean (geometric CV %); for CL renal: human, oral
# Description: Plasma and urine pharmacokinetics samples were assayed for LED-E, LED, and CTB, as appropriate using validated bioanalytical methods. […] Quantitation used separate weighted 1 /x^2 linear least-squares regression analyses generated from calibration standards. Exploratory screening for metabolites was performed for some samples. In both studies, plasma pharmacokinetic parameters were calculated using WinNonlin (Certara; Radnor, PA), and urine pharmacokinetic parameters were calculated using SAS (SAS Institute; Cary, NC).
# [4] = Urinary pharmacokinetics on Day 10 after multiple doses of LED-E q8h; format: in vivo, human; conditions: urine, geometric mean (geometric CV %); for CL renal: human, oral
# Description: Quantitation used separate weighted 1 /x^2 linear least-squares regression analyses generated from calibration standards. Exploratory screening for metabolites was performed for some samples. […] Plasma pharmacokinetic parameters were calculated using noncompartmental analysis of the plasma and urine concentration-time data. […] AUCinf and Cmax were natural log-transformed before analysis, using a linear mixed effects model. […] In both studies, plasma pharmacokinetic parameters were calculated using WinNonlin (Certara; Radnor, PA), and urine pharmacokinetic parameters were calculated using SAS (SAS Institute; Cary, NC).
# [5] = Urinary recovery on Day 10 after multiple doses of CTB + LED-E q8h (VNRX-7145-102 Part 3); conditions: for Ae0–8 / Fe0–8 / CL renal: urine, geometric mean (geometric CV %); for CL renal: human, oral, CLr
# [6] = Plasma pharmacokinetics on Day 10 after multiple doses of CTB + LED-E q8h (VNRX-7145-102 Part 3); conditions: for AUC: AUCtau; for AUC / Cmax / half-life: geometric mean (CV %)
# [7] = 1000 mg, single dose LED-E 1,000 mg, geometric mean (CV %)
# [8] = single dose LED-E 100 mg, geometric mean (CV %)
# [9] = single dose LED-E 200 mg, geometric mean (CV %)
# [10] = single dose LED-E 300 mg, geometric mean (CV %)
# [11] = single dose LED-E 500 mg, geometric mean (CV %)
# [12] = single dose LED-E 800 mg, geometric mean (CV %)
# [13] = multiple doses LED-E 500 mg q8h, after last dose (Day 10)
# [14] = Day 10, CTB 400 mg + LED-E 300 mg q8h
# [15] = Day 10, CTB 400 mg + LED-E 500 mg q8h
# [16] = human, oral, Day 10, CTB 400 mg + LED-E 300 mg q8h
# [17] = human, oral, Day 10, CTB 400 mg + LED-E 500 mg q8h
compound,measurement,setting,value
CCC(=O)N[C@H]1Cc2cccc(C(=O)OCOC(=O)C(CC)CC)c2OB1O [Ledaborbactam etzadroxil],Participants with fatigue (TEAE),healthy participants; LED-E-dosed participants,9.2%
same,Participants with headache (TEAE),healthy participants; LED-E-dosed participants,20.2%
same,Tolerability,"healthy participants; all dose levels, alone or in combination with CTB",well tolerated
same,Participants with gastrointestinal TEAEs,"healthy participants; n = 109, pooled studies, all mild",27.5%
same,Serious or severe TEAEs,"healthy participants; single or multiple doses, alone or with CTB",no serious or severe TEAEs
same,AUC(0-inf),[1]; [7],2300 ng·h/mL
same,Cmax,[1]; [7],1840 ng/mL
same,Vd/F,[1]; [7],2880 L
same,half-life,"[1]; 1000 mg, single dose LED-E 1,000 mg, geometric mean (CV %), read-out: t1/2 (converted)",4.59 h
same,half-life,"[1]; across single doses LED-E 100 to 1,000 mg, read-out: Geometric mean t1/2",2.8 to 4.7 h
same,AUC(0-inf),[1]; [8],177 ng·h/mL
same,Cmax,[1]; [8],167 ng/mL
same,Vd/F,[1]; [8],2290 L
same,half-life,"[1]; single dose LED-E 100 mg, geometric mean (CV %), read-out: t1/2 (converted)",2.81 h
same,Tmax,[1]; single dose LED-E 100 mg,0.5 h
same,AUC(0-inf),[1]; [9],249 ng·h/mL
same,Cmax,[1]; [9],167 ng/mL
same,half-life,"[1]; single dose LED-E 200 mg, geometric mean (CV %), read-out: t1/2 (converted)",3.34 h
same,Tmax,[1]; single dose LED-E 200 mg,0.5 h
same,AUC(0-inf),[1]; [10],439 ng·h/mL
same,Cmax,[1]; [10],347 ng/mL
same,half-life,"[1]; single dose LED-E 300 mg, geometric mean (CV %), read-out: t1/2 (converted)",3.63 h
same,Tmax,[1]; single dose LED-E 300 mg,0.5 h
same,AUC(0-inf),[1]; [11],1290 ng·h/mL
same,Cmax,[1]; [11],917 ng/mL
same,Vd/F,[1]; [11],2640 L
same,half-life,"[1]; single dose LED-E 500 mg, geometric mean (CV %), read-out: t1/2 (converted)",4.7 h
same,AUC(0-inf),[1]; [12],1720 ng·h/mL
same,Cmax,[1]; [12],1160 ng/mL
same,Vd/F,[1]; [12],2260 L
same,half-life,"[1]; single dose LED-E 800 mg, geometric mean (CV %), read-out: t1/2 (converted)",3.37 h
same,Tmax,[1]; single dose LED-E 800 mg,0.5 h
same,AUC,"[2]; Day 10, LED-E 75 mg q8h, 0 to 8 h post-dose",85.5 ng·h/mL
same,Cmax,"[2]; Day 10, LED-E 75 mg q8h",122 ng/mL
same,Vd/F,"[2]; Day 10, LED-E 75 mg q8h",3880 L
same,Tmax,"[2]; Day 10, LED-E 75 mg q8h",0.5 h
same,AUC,"[2]; Day 10, LED-E 150 mg q8h",309 ng·h/mL
same,Cmax,"[2]; Day 10, LED-E 150 mg q8h",447 ng/mL
same,Vd/F,"[2]; Day 10, LED-E 150 mg q8h",3350 L
same,Tmax,"[2]; Day 10, LED-E 150 mg q8h",0.5 h
same,AUC,"[2]; Day 10, LED-E 300 mg q8h",480 ng·h/mL
same,Cmax,"[2]; Day 10, LED-E 300 mg q8h",629 ng/mL
same,Vd/F,"[2]; Day 10, LED-E 300 mg q8h",6080 L
same,Tmax,"[2]; Day 10, LED-E 300 mg q8h",0.5 h
same,AUC,"[2]; Day 10, LED-E 500 mg q8h",1050 ng·h/mL
same,Cmax,"[2]; Day 10, LED-E 500 mg q8h",919 ng/mL
same,Vd/F,"[2]; Day 10, LED-E 500 mg q8h",6290 L
same,half-life,"[2]; 75 mg, Day 10, LED-E 75 mg q8h",3.07 h
same,half-life,"[2]; 150 mg, Day 10, LED-E 150 mg q8h",4.78 h
same,half-life,"[2]; 300 mg, Day 10, LED-E 300 mg q8h",6.75 h
same,half-life,"[2]; 500 mg, Day 10, LED-E 500 mg q8h",9.14 h
same,CL renal,[3]; single dose LED-E 300 mg,0.22 mL/min
same,CL renal,[3]; single dose LED-E 500 mg,0.275 mL/min
same,CL renal,[3]; single dose LED-E 800 mg,0.292 mL/min
same,CL renal,[3]; single dose LED-E 1000 mg,0.393 mL/min
same,Ae0–8,[3]; single dose LED-E 300 mg,0.00779 (51.0) mg
same,Ae0–8,[3]; single dose LED-E 500 mg,0.0212 (38.4) mg
same,Ae0–48,[3]; single dose LED-E 500 mg,0.0212 (38.4) mg
same,Ae0–8,[3]; single dose LED-E 800 mg,0.0301 (49.2) mg
same,Ae0–48,[3]; single dose LED-E 800 mg,0.0301 (49.2) mg
same,Ae0–8,[3]; single dose LED-E 1000 mg,0.0542 (68.6) mg
same,Ae0–48,[3]; single dose LED-E 1000 mg,0.0542 (68.6) mg
same,CL renal,[4]; multiple doses LED-E 150 mg q8h,0.247 mL/min
same,CL renal,[4]; multiple doses LED-E 300 mg q8h,0.121 mL/min
same,CL renal,[4]; multiple doses LED-E 500 mg q8h,0.433 mL/min
same,Ae0–48,"[4]; multiple doses LED-E 75 mg q8h, after last dose (Day 10)",below the limit of quantification
same,Ae0–48,"[4]; multiple doses LED-E 150 mg q8h, after last dose (Day 10)",0.00488 (47.9) mg
same,Ae0–48,"[4]; multiple doses LED-E 300 mg q8h, after last dose (Day 10)",0.00378 (218) mg
same,Ae0–8,[4]; [13],0.0273 (38.5) mg
same,Ae0–48,[4]; [13],0.0273 (38.5) mg
same,Ae0–48,"[4]; multiple doses LED-E 500 mg q8h, after last dose (Day 10), listed as LED-E",0.03 mg
same,Ae0–8,[5]; [14],0.0113 (41.4) mg
same,Fe0–8,[5]; [14],0.00377 (41.4) %
same,Ae0–8,[5]; [15],0.0271 (58.4)^d mg
same,Fe0–8,[5]; [15],0.00542 (58.4)^d %
same,"Fe0-8 recovered in urine, of the last dose","[5]; Day 10, across CTB 400 mg + LED-E 300 mg q8h and CTB 400 mg + LED-E 500 mg q8h",less than 0.01%
same,CL renal,[5]; [14],0.402 mL/min
same,CL renal,[5]; [15],0.42 mL/min
same,Change in geometric mean AUCtau from the first to the last dose,"[6]; Day 10, CTB 400 mg + LED-E 300 or 500 mg q8h, both dose groups",unchanged
same,AUC,[6]; [16],463 ng·h/mL
same,AUC,[6]; [17],1090 ng·h/mL
same,Cmax,[6]; [16],467 ng/mL
same,Cmax,[6]; [17],1180 ng/mL
same,Tmax,"[6]; human, oral, Tmax, Day 10, CTB 400 mg + LED-E 300 mg q8h, median (range)",0.5 h
same,half-life,"[6]; human, oral, t1/2, Day 10, CTB 400 mg + LED-E 300 mg q8h",7.68 h
same,half-life,"[6]; human, oral, t1/2, Day 10, CTB 400 mg + LED-E 500 mg q8h",10.7 h

# Reference: article PMC12406652 (Antimicrobial Agents and Chemotherapy, 2025)
